SMILES strings stand for the structures. pEC50, pIC50: −log10 of the molar value. Where two headings read alike, the source gives them in different places.

Usually pIC50 stands for −log10 of the IC50, conventionally taken in molar units. As usually defined, the pEC50 is −log10 of the EC50, conventionally taken in molar units.

The subject of data set [1] is VDR. Conditions: antagonist activity for 1; read-out: Antagonistic Activity IC50; cited from earlier work.
Data set [2] relates to VDR. Conditions: literature values, cited from earlier work; for pEC50: read-out: Transcriptional Activity EC50.
Data set [3] relates to VDR. Conditions: cited from earlier work; for pIC50: literature values, read-out: VDR Affinity IC50.
Data set [4] deals with VDR. Put plainly: VDR affinity, previously reported. Conditions: effect of exocyclic methylene at C-2; values of Table 1. In kind it is binding.
On the set-up of data set [5]: method as in PMID 26613420. Conditions: versus natural hormone 1; cited from earlier work.
Data set [6] relates to HL-60 cell. Further details: method as in PMID 6572492. Conditions: cited from earlier work.
The subject of data set [7] is CYP24A1 expression in intestine-derived HCT116 cells. Further details: method as in PMID 17325131. Conditions: cited from earlier work.
In data set [8] the test system is CYP24A1 expression in HaCaT cells. Also on record: method as in PMID 17325131, PMID 24773565. Conditions: cited from earlier work.
Data set [9] relates to human dedifferentiated fat (DFAT) cells. Put plainly: Osteogenic differentiation assay: ALP activity in human DFAT cells. Format: cell-based. Conditions: osteogenic medium, 100 nM, 7 days, natural hormone 1 = 100%. How it is done: Mature adipocytes from the adipose tissue of mammals such as humans and rodents can be dedifferentiated into pluripotent cells using ceiling culture. Dedifferentiated fat (DFAT) cells have potential applications in both regenerative medicine and injury healing, as well as mesenchymal stem cells, embryonic stem cells, and induced pluripotent stem cells. The osteogenic activity of vitamin D derivatives was assessed based on alkaline phosphatase (ALP) activity.
Samples of human subcutaneous adipose tissue were obtained from patients who underwent surgery in the Department of Pediatric Surgery at Nihon University Itabashi Hospital (Tokyo, Japan). The patients gave their written informed consent, and the Ethics Committee of Nihon University School of Medicine approved this study. We prepared dedifferentiated fat (DFAT) cells using the ceiling culture method, as described previously. Briefly, the adipose tissue (approximately 1 g) was cut into small pieces and digested with a 0.1% type I collagenase solution (Koken Co., Ltd., Tokyo, Japan). […] The cells that adhered to the upper surface of the flasks were cultured for conversion to dedifferentiated fat cells. […] Cells at passages 2–4 were used for differentiation experiments.
Cells were grown to confluency in 24-well plates and incubated for a week in DMEM containing 10% FBS, 100 nM dexamethasone (Merk), 10 mM β-glycerophosphate (Merk), and […] L-ascorbic acid-2-phosphate (Merk), with 100 nM of each compound. The induction medium was replaced on day 4. The alkaline phosphatase (ALP) activity in the cell lysates was determined on day 7 with a lab assay ALP kit (Fujifilm wako). The total protein content was determined with the BCA protein assay kit (Thermo Fisher Scientific). ALP levels were normalized to the total protein content.

As to `C=C1[C@H](O)CC(=C/C=C2\CCC[C@]3(C)[C@@H]([C@H](C)/C=C/C[C@H](O)C45CC6CC(CC(C6)C4)C5)CC[C@@H]23)C[C@H]1O` [ADNY93], in data set [1], the pIC50 is 8.92. Moreover, in [2], the “Transcriptional Activity % Efficacy of That of 1” value is 17% and the pEC50 is 9.00. Also, the pIC50 in [3] is 10.00. In addition, in data set [4], the “VDR affinity, times that of AD47 (2)” value turned out to be 50 times.

In the case of `C=C1[C@H](O)CC(=C/C=C2\CCC[C@]3(C)[C@@H](C#CC#C[C@@H](O)C45CC6CC(CC(C6)C4)C5)CC[C@@H]23)C[C@H]1O` [ADYW2], in [2], the “Transcriptional Activity % Efficacy of That of 1” value is 86% and the pEC50 was 8.82. Also, in data set [3], the pIC50 is 8.30. In data set [5], the “stability in MG63 cells” value is reported as “more stable than natural hormone 1”.

As to `C=C1/C(=C\C=C2/CCC[C@]3(C)[C@@H]([C@H](C)CCC(F)(F)C(C)(C)O)CC[C@@H]23)C[C@H](O)C[C@H]1O` [24F2-1,25(OH)2D3, 24, 24-difluoro-1α, 25-dihydroxyvitamin D3], the “activity in HL-60 cell differentiation versus natural metabolite (1)” value in [6] is given as “four to seven times more activity than natural metabolite (1)”.

Turning to `C[C@H](/C=C/C[C@H](O)C12CC3CC(CC(C3)C1)C2)[C@H]1CC[C@H]2/C(=C/C=C3C[C@@H](O)C[C@H](O)C3)CCC[C@]12C` [AD47], the values for the pIC50 in data set [1] and in [3] were 6.40 and 8.30, respectively. Also, the “Transcriptional Activity % Efficacy of That of 1” value in data set [2] is listed as 17%. In [2], the negative logarithm of the EC50 (pEC50) is 6.52. For the same molecule, the “CYP24A1 expression compared to 1” value in [7] is recorded as 75%; in [8], 50%.

For the molecule `C=C1[C@H](O)CC(=C/C=C2\CCC[C@]3(C)[C@@H]([C@H](C)CC#C[C@@H](O)C45CC6CC(CC(C6)C4)C5)CC[C@@H]23)C[C@H]1O` [ADTK1], in data set [2], the “Transcriptional Activity % Efficacy of That of 1” value is recorded as 81%. Further, the pIC50 in data set [3] is 9.30. The “VDR affinity, % of that of 1” value in [3] (relative to 1,25(OH)2D3 (1)) was 90%. Besides, in data set [9], the ALP activity was 45.6%. In data set [8], the “CYP24A1 expression compared to 1” value was “less than 50%”.

These data come from article PMC10377034, “Syntheses of 25-Adamantyl-25-alkyl-2-methylidene-1α,25-dihydroxyvitamin D3 Derivatives with Structure–Function Studies of Antagonistic and Agonistic Active Vitamin D Analogs” (Biomolecules, 2023).
